Test results published in publication PMC4183650 (Journal of the American Chemical Society, 2014).

Experiments:
VanA VRE = conditions: clinically resistant phenotypes (VanA and VanB); cited from earlier work
[1] = tested on: panel of Gram-positive bacteria (VSSA, MRSA, VanA and VanB VRE); experiment: In vitro antimicrobial assay, panel summary in text; type: cell-based, S. aureus, E. faecalis, E. faecium
[2] = both D-Ala-D-Ala and D-Ala-D-Lac ligands; cited from earlier work

Vancomycin [compound 1]
loss in antimicrobial activity in resistant phenotypes (VanA VRE): 1000 fold

[Ψ[C(=NH)NH]Tpg^4]vancomycin [compound 3]
MIC against VanA resistant bacteria ([1]; VanA resistant bacteria): 0.5 µg/mL

[Ψ[C(=NH)NH]Tpg^4]vancomycin aglycon [compound 9]
binding affinity for both target ligands relative to vancomycin aglycon for D-Ala-D-Ala [2]: ≤ 2 fold

[Ψ[C(=S)NH]Tpg^4]vancomycin [compound 2]
MIC against all vancomycin sensitive and resistant strains ([1]; whole panel: VSSA, MRSA, VanA and VanB VRE): > 32 µg/mL
